# Laboratory results published in patent US8273743B2, “Quinoxaline inhibitors of the hedgehog signalling” (Curis, Inc., priority 2004, dated 2012).
# Tested on: hedgehog pathway signaling (10T1/2-GliLuc [s12] or HEPM-GliLuc [MZ24] Gli reporter cell lines)
# Assay: Hedgehog signalling inhibition assay (Gli-luciferase reporter gene assay)
# Type: cell-based
# Settings: average IC50; either mouse [s12] or human [MZ24] Gli reporter cell lines; with Sonic hedgehog-octyl conjugate, 24 hrs
# Method: Mouse Reporter Cell lines—10T1/2-GliLuc [s12] cells (derived from cell line C3H10T1/2 ATCC #CCL-226); Mouse Embryonic Fibroblasts); Growth Medium: Dulbecco's modified Eagles' Medium (DMEM) supplemented with 10% Fetal Bovine Serum (FBS), 10 units/mL penicillin, 100 ug/mL streptomycin, 2 mM glutamine, and 10 mM HEPES.
# Human Reporter Cell lines—HEPM-GliLuc [MZ24]—cells (derived from HEPM, Human Embryonic Palatal Mesenchyme ATCC #CRL-1486); Growth Medium: Minimum Essential Medium (MEM; with Earle's salts) supplemented with 10-20% Fetal Bovine Serium (FBS), 10 units/mL penicillin, 100 ug/mL streptomycin, 2 mM glutamine, and 10 mM HEPES pH 7.2.
# Sonic hedgehog—recombinant human SHh N-terminal octylated conjugate.
# Microtiter Plates (MTPs)—For the Luciferase assay cells are plated in 96-well MTPs (White, Flat-bottom, Clear-View).
# Luciferase-Assay Medium—DMEM supplemented with 0.5% FBS, 10 units/mL penicillin, 100 ug/mL streptomycin, 2 mM glutamine, and 10 mM HEPES pH 7.2.
# PBS/Ca/Mg Mix—Phosphate Buffered Saline (PBS) supplemented with 0.5 mM CaCl2 and 1 mM MgCl2.
# S12 and MZ24 cells genetically modified to contain a luciferase reporter gene driven by the hedgehog-responsive Gli promoter were maintained on tissue culture dishes in Growth Medium at 37° C. and 5% CO2. Cell cultures were passaged at sub-confluency at every 3-4 days. (1:20 to 1:40 for s12; 1:3 to 1:10 for MZ24). Cells were harvested and diluted in Growth Medium such that they could be plated in a microtitre plate at 10,000-20,000 cells (s12), or 20,000-30,000 cells (MZ24), per 100 ul, per well. Cells were further incubated for ˜24-48 hours at 37° C. and 5% CO2.
# After ˜24-48 hour incubation the Growth Medium in the microtitre plates was replaced by Luciferase-Assay Medium (100 ul per well), with and without Sonic hedgehog-octyl conjugate, at 0.1-0.3 ug/ml (S12) or 0.5-1.0 ug/ml (MZ24), and test compounds. Cells were then further incubated for and additional 24 hrs.
# Microtitre plates were then subjected to the luciferase reporter gene assay kit (LucLite™), with modifications to the manufacturer's procedure wherein medium was removed and the substrate was reconstituted with 1:1 PBS/Ca/Mg:lysis buffer instead of straight lysis buffer. In brief, the PBS/Ca/Mg was mixed 1:1 with lysis buffer and 10 mL were added to each substrate vial (of the 1000-assay kit). Then the assay media from the microtitre plate was discarded, and 100 ul of this substrate mix was added to each well. Plates were incubated at room temperature for 20-30 minutes and then the Relative Light Units (RLUS) representing the relative expression level of the luciferase reporter gene were determined with a Topcount reader (Packard) or an Analyst reader (Molecular Devices).
# The following table 1 represents the average IC50 values for particular compounds tested according to the procedures above using either mouse [s12] or human [MZ24] Gli reporter cell lines indicating inhibition of hedgehog pathway signaling.
row,IC50 [nM],Structure (SMILES)
1,< 1000,CS(=O)(=O)c1ccc(C(=O)Nc2ccc(Cl)c(-c3cnc4ccccc4n3)c2)cc1 [compound 18]
2,< 1000,O=C(Nc1ccc(Cl)c(-c2cnc3ccccc3n2)c1)c1ccc(Cl)nc1Cl [compound 15]
3,< 1000,O=C(Nc1ccc(Cl)c(-c2cnc3ccccc3n2)c1)c1cccnc1Cl [compound 37]
4,< 1000,Cc1nc(C(F)(F)F)ccc1C(=O)Nc1ccc(Cl)c(-c2cnc3c(F)c(F)ccc3n2)c1 [compound 40]
5,< 1000,Cc1nc(C(F)(F)F)ccc1C(=O)Nc1ccc(Cl)c(-c2cnc3cc(F)ccc3n2)c1 [compound 43]
6,< 1000,O=C(Nc1ccc(Cl)c(-c2cnc3ccccc3n2)c1)c1ccc(Cl)cc1 [compound 34]
7,< 1000,Cc1ccsc1C(=O)Nc1ccc(Cl)c(-c2cnc3ccccc3n2)c1 [compound 7]
8,< 1000,Cc1cc(C)c2nc(-c3cc(NC(=O)c4ccc(C(F)(F)F)nc4C)ccc3Cl)cnc2c1 [compound 48]
9,< 1000,Cc1ccc2ncc(-c3cc(NC(=O)c4ccc(C(F)(F)F)nc4C)ccc3Cl)nc2c1C [compound 45]
10,< 1000,O=C(Nc1ccc(Cl)c(-c2cnc3ccccc3n2)c1)c1ccc2cc[nH]c2c1 [compound 19]
11,< 1000,Cc1nc(C(F)(F)F)ccc1C(=O)Nc1ccc(Cl)c(-c2cnc3c(F)cc(F)cc3n2)c1 [compound 39]
12,< 1000,O=C(Nc1ccc(Cl)c(-c2cnc3ccccc3n2)c1)c1cccs1 [compound 38]
13,< 1000,CC(C)CC(=O)Nc1ccc(Cl)c(-c2cnc3ccccc3n2)c1 [compound 56]
14,< 1000,CS(=O)(=O)c1cccc(C(=O)Nc2ccc(Cl)c(-c3cnc4ccccc4n3)c2)c1 [compound 24]
15,< 1000,O=C(Nc1ccc(Cl)c(-c2cnc3ccccc3n2)c1)C1CC1 [compound 27]
16,< 1000,O=C(Nc1ccc(Cl)c(-c2cnc3ccccc3n2)c1)c1cccnc1F [compound 6]
17,< 1000,O=C(Nc1ccc(Cl)c(-c2cnc3ccccc3n2)c1)c1cccc2c1OCCO2 [compound 44]
18,< 1000,COc1cc(OC)cc(C(=O)Nc2ccc(Cl)c(-c3cnc4c(C)cccc4n3)c2)c1 [compound 46]
19,< 1000,Cc1cc(C(=O)Nc2ccc(Cl)c(-c3cnc4ccccc4n3)c2)c(C(F)(F)F)o1 [compound 31]
20,< 1000,O=C(Nc1ccc(Cl)c(-c2cnc3ccccc3n2)c1)c1cccnc1 [compound 35]
21,< 1000,O=C(Nc1ccc(Cl)c(-c2cnc3ccccc3n2)c1)c1ccc(Cl)nc1 [compound 36]
22,< 1000,COc1cc(OC)cc(C(=O)Nc2ccc(Cl)c(-c3cnc4ccc(C)c(C)c4n3)c2)c1 [compound 54]
23,< 1000,Cc1cc2ncc(-c3cc(NC(=O)c4ccc(C(F)(F)F)nc4C)ccc3Cl)nc2cc1C [compound 42]
24,< 1000,Cc1nc(C(F)(F)F)ccc1C(=O)Nc1ccc(Cl)c(-c2cnc3cccnc3n2)c1 [compound 55]
25,< 1000,Cc1nc(C(F)(F)F)ccc1C(=O)Nc1ccc(Cl)c(-c2cnc3cc(F)c(F)cc3n2)c1 [compound 41]
26,< 1000,O=C(Nc1ccc(Cl)c(-c2cnc3ccccc3n2)c1)c1cccc(Cl)c1 [compound 33]
27,< 1000,Cc1nc(C(F)(F)F)ccc1C(=O)Nc1ccc(Cl)c(-c2cnc3c(C)cccc3n2)c1 [compound 47]
